Data on 10 compounds can be found in patent publication US11384075B2, “Quinolinone compounds” (Janssen Pharmaceutica NV, priority 2017, dated 2022).

Experiment [1] concerns the target T1, NIH/3T3 cells overexpressing FGFR3 V555M-TACC3 fusion protein (Homo sapiens, UniProt P22607, V555M, cells depend on it).
T1 construct: NIH/3T3 FGFR3 V555M-TACC3 CTG (IC50); other: 72-hr incubation, CellTiter Glo, starting with 10 μM; fused on or other part: Q9Y6A5 (Transforming acidic coiled-coil-containing protein 3)
Description: NIH/3T3 FGFR3 V555M-TACC3 cell proliferation assay. It counts as cell-based. The note with it: 72-hr incubation, CellTiter Glo, starting with 10 μM; read-out: NIH/3T3 FGFR3 V555M-TACC3 CTG (IC50). As to the method: NIH/3T3 FGFR3 V555M-TACC3 Cell Proliferation Assay
(§1) In day 1, 90 μL of cell suspension (NIH/3T3 cells overexpressing FGFR3 V555M-TACC3 fusion protein) (total 30,000 cells per well in growth medium (DMEM containing 1% Glutamax, 10% FBS and 1% Pen/Strep)) was seeded in a 96-well plate and then incubated overnight at 37° C. and 5% CO2. In day 2, 10 μL of growth medium containing 10-fold stock solution of testing compound was added into cell cultures (9 dose points with 4× serial dilution, starting with 10 μM, 0.1% DMSO final). After 72-hr incubation at 37° C. and 5% CO2, in day 5 a volume of 50 μL CellTiter Glo (CTG) reagent was added into cell-containing 96-well plate and the plate was incubated at room temperature for 10 minutes before RLUs (relative light unit) were measured on a microplate reader with luminescence detection module. The RLU value was normalized to survival % and concentration-response curve was plotted using Prism to calculate IC50 (M), pIC50 (−log IC50) and HillSlope value.
Background: Cellular ATP, detected with luciferase, serves as a proxy for viable cell number.

In experiment [2] the test system is NIH/3T3 cells transfected with the same control vector. Description: NIH/3T3 mock cell proliferation assay (counter assay, general toxicity). Type of experiment: cell-based. The conditions noted are these: 72-hr incubation, CellTiter Glo, starting with 30 μM, counter assay for general toxicity, read-out: NIH/3T3 MOCK CTG (IC50). The protocol: NIH/3T3 Mock Cell Proliferation Assay
as §1, with “cells transfected with the same control vector as in the above two proliferation assays)” for “cells overexpressing FGFR3 V555M-TACC3 fusion protein)”, “with 3×” for “with 4×”, “with 30” for “with 10”, “μM, 0.3%” for “μM, 0.1%”

For experiment [3], the target named is T2, human FGFR3 wild type enzyme (cytoplasmic domain) (Homo sapiens, UniProt P22607).
T2 construct: human FGFR3 wild type enzyme (cytoplasmic domain, from Carna Biosciences); purchased Carna Biosciences
Description: FGFR3 wild type mobility shift assay (enzymatic assay). It counts as biochemical. The note with it: 75 μM ATP, 50 minutes at 30° C., Caliper EZ reader II. As to the method: FGFR3 Wild Type Mobility Shift Assay (Enzymatic Assay)
(§2) In a final reaction volume of 25 μL, 0.04 ng/μL human FGFR3 wild type enzyme (cytoplasmic domain, from Carna Biosciences) was incubated with 75 μM ATP, 1 μM FL-peptide 30 substrate and 250 nL of testing compound (1% DMSO final) in assay buffer (100 mM HEPES pH 7.4, 10 mM MgCl2, 0.003% Brij35, 1 mM DTT). After incubation for 50 minutes at 30° C. the reaction was stopped with 10 μL of 0.5M EDTA pH 8.0, and then 25 μL of reaction mixture was transferred to reading plate and measured on Caliper EZ reader II. The substrate-product conversion rate was used as raw data for normalization and concentration-response curve (10 dose points with 4× serial dilution, starting with 10 μM) was plotted using Prism to calculate IC50 (M), pIC50 (−log IC50) and HillSlope value.

Experiment [4] addresses T3, NIH/3T3 cells overexpressing FGFR3 WT-TACC3 fusion protein (Homo sapiens, UniProt P22607).
T3 construct: NIH/3T3 FGFR3 WT-TACC3 CTG (IC50); other: 72-hr incubation, CellTiter Glo, starting with 10 μM; fused on or other part: Q9Y6A5 (Transforming acidic coiled-coil-containing protein 3)
Description: NIH/3T3 FGFR3 WT-TACC3 cell proliferation assay. Type of experiment: cell-based. The note with it: 72-hr incubation, CellTiter Glo, starting with 10 μM; read-out: NIH/3T3 FGFR3 WT-TACC3 CTG (IC50). The protocol: NIH/3T3 FGFR3 WT-TACC3 Cell Proliferation Assay
as §1, with “WT-TACC3” for “V555M-TACC3”

Experiment [5] deals with T4, human FGFR3 V555M enzyme (cytoplasmic domain carrying V555M mutation) (Homo sapiens, UniProt P22607, V555M).
T4 construct: human FGFR3 V555M enzyme (cytoplasmic domain carrying V555M mutation, from Carna Biosciences); purchased Carna Biosciences
Kind of experiment: FGFR3 V555M mobility shift assay (enzymatic assay). Type of experiment: biochemical. The conditions noted are these: 30 μM ATP, 45 minutes at 30° C., Caliper EZ reader II. As to the method: FGFR3 V555M Mobility Shift Assay (Enzymatic Assay)
as §2, with “FGFR3 V555M” for “FGFR3 wild type”, “(cytoplasmic domain carrying V555M mutation,” for “(cytoplasmic domain,”, “with 30” for “with 75”, “for 45” for “for 50”

Where two headings read alike, the source gives them in different places.

T1 sequence (P22607 whole entry V555M, the tested form may be a part): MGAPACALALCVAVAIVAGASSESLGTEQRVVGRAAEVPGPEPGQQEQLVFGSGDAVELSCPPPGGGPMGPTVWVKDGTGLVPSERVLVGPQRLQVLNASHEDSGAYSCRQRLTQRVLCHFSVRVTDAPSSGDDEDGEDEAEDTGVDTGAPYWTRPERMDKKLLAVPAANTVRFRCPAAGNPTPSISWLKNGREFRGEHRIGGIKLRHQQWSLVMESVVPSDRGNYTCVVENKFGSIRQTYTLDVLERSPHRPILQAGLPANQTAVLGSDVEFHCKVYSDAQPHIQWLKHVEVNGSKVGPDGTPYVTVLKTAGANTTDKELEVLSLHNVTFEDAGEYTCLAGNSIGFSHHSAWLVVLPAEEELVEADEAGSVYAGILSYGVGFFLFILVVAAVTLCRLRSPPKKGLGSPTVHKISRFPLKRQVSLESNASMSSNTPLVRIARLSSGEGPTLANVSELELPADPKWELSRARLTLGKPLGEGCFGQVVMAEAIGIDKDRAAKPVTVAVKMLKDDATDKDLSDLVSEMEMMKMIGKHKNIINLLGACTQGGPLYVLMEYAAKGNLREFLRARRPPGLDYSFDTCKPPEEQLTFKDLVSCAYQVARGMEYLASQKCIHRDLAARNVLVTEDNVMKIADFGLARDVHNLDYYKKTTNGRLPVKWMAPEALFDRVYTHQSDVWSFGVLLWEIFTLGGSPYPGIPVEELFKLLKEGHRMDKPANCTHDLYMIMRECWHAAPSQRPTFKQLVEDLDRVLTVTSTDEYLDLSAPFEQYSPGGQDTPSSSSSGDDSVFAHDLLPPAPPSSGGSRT
T2 sequence (P22607 397-806 limits assumed): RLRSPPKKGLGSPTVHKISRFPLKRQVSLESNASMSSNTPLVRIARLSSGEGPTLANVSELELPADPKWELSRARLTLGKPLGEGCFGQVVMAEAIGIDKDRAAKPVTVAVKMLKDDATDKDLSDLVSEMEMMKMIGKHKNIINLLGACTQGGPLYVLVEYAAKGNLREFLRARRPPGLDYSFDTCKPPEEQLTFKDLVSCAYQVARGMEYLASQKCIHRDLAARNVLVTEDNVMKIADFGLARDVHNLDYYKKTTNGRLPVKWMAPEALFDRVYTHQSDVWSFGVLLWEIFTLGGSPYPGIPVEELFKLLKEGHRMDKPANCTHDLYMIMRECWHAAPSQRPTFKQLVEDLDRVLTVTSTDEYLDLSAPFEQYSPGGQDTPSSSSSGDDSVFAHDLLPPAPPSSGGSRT
T3 sequence (P22607 whole entry, change not shown, the tested form may be a part): as the sequence (P22607 whole entry V555M, the tested form may be a part) above, with M555V counted along it
T4 sequence (P22607 397-806 V555M limits assumed): as the sequence (P22607 397-806 limits assumed) above, with V159M counted along it

Consider `CC(Nc1c(-c2nc3cc(F)c(N4CCOCC4)cc3[nH]2)c(=O)[nH]c2ccccc12)c1ncccn1` (single isomer, unassigned) [Compound 27a, (S*)-3-(5-fluoro-6-morpholino-1H-benzo[d]imidazol-2-yl)-4-((1-(pyrimidin-2-yl)-ethyl)amino)quinolin-2(1H)-one], for which the GI50 in experiment [1] is 5.8 nM; in experiment [4] it was 6.93 nM. Further, the IC50 in experiment [2] (Mus musculus, NIH3T3, 72 h) is 3880 nM; in experiment [3], 0.445 nM; in experiment [5], 0.255 nM.
On the same counts, the results for `CC(Nc1c(-c2nc3ccc(N4CCN(CCC(F)(F)F)CC4)cc3[nH]2)c(=O)[nH]c2ccccc12)c1ncccn1` (single isomer, unassigned) [Compound 41a, (S*)-4-((1-(pyrimidin-2-yl)ethyl)amino)-3-(6-(4-(3,3,3-trifluoropropyl)piperazin-1-yl)-1H-benzo[d]imidazol-2-yl)quinolin-2(1H)-one] are 5.01 nM, 7.08 nM, 6970 nM, 0.668 nM and 0.485 nM.
On the same counts, the results for `CC(Nc1c(-c2nc3ccc(N4CCO[C@@H](C)C4)cc3[nH]2)c(=O)[nH]c2ccccc12)c1ncccn1` (single isomer, unassigned) [Compound 26a, 3-(6-((S)-2-methylmorpholino)-1H-benzo[d]imidazol-2-yl)-4-(((S*)-1-(pyrimidin-2-yl)-ethyl)amino)quinolin-2(1H)-one] are 4.3 nM, 2.22 nM, 2580 nM, 0.317 nM and 0.178 nM.
Consider `CC(Nc1c(-c2nc3ccc(-c4cnn(C)c4)cc3[nH]2)c(=O)[nH]c2ccccc12)c1ncccn1` (single isomer, unassigned) [Compound 53a, (S*)-3-(6-(1-methyl-1H-pyrazol-4-yl)-1H-benzo[d]imidazol-2-yl)-4-((1-(pyrimidin-2-yl)ethyl)amino)quinolin-2(1H)-one], for which the GI50 in experiment [1] was 8.64 nM; in experiment [4], 9.9 nM. The IC50 in experiment [2] (Mus musculus, NIH3T3, 72 h) was found to be 1690 nM; in experiment [3], 0.47 nM; in experiment [5] it was 0.186 nM.
As to `COC(=O)C1CN(c2ccc3nc(-c4c(N[C@@H](C)c5ccccn5)c5ccccc5[nH]c4=O)[nH]c3c2)CCO1` (single isomer, unassigned) [Compound 61, (S*)-methyl 4-(2-(2-oxo-4-(((S)-1-(pyridin-2-yl)ethyl)amino)-1,2-dihydroquinolin-3-yl)-1H-benzo[d]imidazol-6-yl)morpholine-2-carboxylate], the results for the GI50 in experiment [1] and in experiment [4] were 111 nM and 113 nM, respectively. The values for the IC50 in experiment [2], in experiment [3] and in experiment [5] were 1840 nM, 2.15 nM and 1.13 nM, respectively.
Turning to `C[C@@H]1CN(c2ccc3nc(-c4c(N[C@@H](C)c5ncccn5)c5ccccc5[nH]c4=O)[nH]c3c2)CCO1` (single isomer, unassigned) [Compound 40a], the GI50 in experiment [1] stood at 1.85 nM; in experiment [4], 3.15 nM. Besides, the IC50 turned out to be 2480 nM in experiment [2] (Mus musculus, NIH3T3, 72 h); 0.313 nM in experiment [3]; 0.168 nM in experiment [5].
Regarding `C[C@@H](Nc1c(-c2nc3ccc(N4CCOCC4)cc3[nH]2)c(=O)[nH]c2ccccc12)c1ncccn1` [Compound 3, (R)-3-(6-morpholino-1H-benzo[d]imidazol-2-yl)-4-((1-(pyrimidin-2-yl)ethyl)-amino)quinolin-2(1H)-one], the GI50 amounted to 41.8 nM in experiment [1] and 58.5 nM in experiment [4]. The IC50 amounted to 11000 nM in experiment [2] (Mus musculus, NIH3T3, 72 h); 585 nM in experiment [3]; 204 nM in experiment [5].
`C[C@H](Nc1c(-c2nc3cc(C(F)(F)F)c(NC4CCN(C)CC4)cc3[nH]2)c(=O)[nH]c2ccccc12)c1ccccn1` [Compound 18, (S)-3-(6-((1-methylpiperidin-4-yl)amino)-5-(trifluoromethyl)-1H-benzo[d]imidazol-2-yl)-4-((1-(pyridin-2-yl)ethyl)amino)quinolin-2(1H)-one]: the GI50 in experiment [1] came to 87.8 nM; in experiment [4], 56.8 nM. The IC50 in experiment [2] (Mus musculus, NIH3T3, 72 h) was 733 nM; in experiment [3] it was 1.35 nM; in experiment [5], 1.35 nM.
As to `CC(Nc1c(-c2nc3ccc(N4CCOCC4)cc3[nH]2)c(=O)[nH]c2ccccc12)c1cocn1` (single isomer, unassigned) [Compound 51a, (S*)-3-(6-morpholino-1H-benzo[d]imidazol-2-yl)-4-((1-(oxazol-4-yl)ethyl)amino)-quinolin-2(1H)-one], the GI50 in experiment [1] was found to be 30.2 nM; in experiment [4] it was 30.1 nM. Besides, the IC50 in experiment [2] (Mus musculus, NIH3T3, 72 h) worked out at 1180 nM; in experiment [3] it was 1.31 nM; in experiment [5], 0.237 nM.
On the same counts, the results for `CC(Nc1c(-c2nc3ccc(N4CCOCC4)c(F)c3[nH]2)c(=O)[nH]c2ccccc12)c1ncccn1` (single isomer, unassigned) [Compound 23a, (S*)-3-(7-fluoro-6-morpholino-1H-benzo[d]imidazol-2-yl)-4-((1-(pyrimidin-2-yl)-ethyl)amino)quinolin-2(1H)-one] are 13.4 nM, 8.34 nM, 15300 nM, 0.591 nM and 0.245 nM.
